PMC6273635, “Synthesis and Structure-Activity Relationships of Imidazole-Coumarin Conjugates against Hepatitis C Virus” (Molecules, 2016)
Read-outs that look alike come from different tables or passages of the source.

Legend:
[1] = Anti-metabolic effect on host cell metabolism (MTS method) in Huh 5-2 replicon cells; format: cell-based; details: human, Huh 5-2 cells (HCV genotype 1b subgenomic replicon), concentration reducing host cell metabolism by 50%, average of triplicate determinations
Experimental: (§1) The antiviral activity of conjugated compounds 3a–g, 7a–e, 9a,b,d–f, and 11b,e,f in the HCV genotype 1b subgenomic Huh 5-2 replicon system was evaluated according to established procedures. On the basis of the dose-response curves that were obtained, the concentration of a compound that inhibited virus replication by 50% (i.e., EC50) and the concentration of compound that reduced host cell metabolism by 50% (i.e., CC50) were obtained. These values subsequently allowed us to calculate the selectivity index (i.e., SI = CC50/EC50), which is a measure for the therapeutic window of the compound in an assay system. […] The observed antiviral effect of other compounds was most likely related mainly to the pleiotropic or aspecific effect on the host cell.

[2] = tested on: HCV genotype 1b subgenomic Huh 5-2 replicon system; experiment: Antiviral effect on HCV 1b subgenomic replicon replication in Huh 5-2 cells; format: cell-based, Hepatitis C virus
Experimental: as §1

Huh 5-2 cells [3] = experiment: Anti-metabolic effect on host cell metabolism (MTS method) in Huh 5-2 replicon cells; format: cell-based; details: concentration reducing host cell metabolism by 50%, average of triplicate determinations
Experimental: as §1

Huh 5-2 cells [4] = tested on: Huh 5-2 cells; parameters: method as in PMID 17977606; details: host cell metabolism, MTS method, reference known compounds, ref [11]; cited from earlier work
[5] = tested on: HCV genotype 1b subgenomic Huh 5-2 replicon system; parameters: method as in PMID 17977606; details: HCV 1b subgenomic replicon in Huh 5-2 cells; reference known compounds; ref [11]; cited from earlier work

For `O=c1oc2ccc(Cl)cc2cc1CSc1nccn1[C@@H]1O[C@H](CO)[C@@H](O)[C@H]1O` [Compound 7c, 1-(β-D-Ribofuranos-1″-yl)-2-[(6′-chlorocoumarin-3′-yl)methylthio]imidazole], the melting point was 178.8 to 179.6 °C, the CC50 [1] was 85 µM and the EC50 ([2]; Hepatitis C virus, Huh-5-2) was 14 µM.

Compound `COc1cccc2cc(CSc3nc4c(=O)[nH]c(N)nc4n3[C@@H]3O[C@H](CO)[C@@H](O)[C@H]3O)c(=O)oc12` [Compound 11e, 8-[(8′-Methoxycoumarin-3′-yl)methylthio]guanosine] has a CC50 [1] of 99 µM and an EC50 ([2]; Hepatitis C virus, Huh-5-2) of 99 µM.

Compound `c1c[nH]cn1` [imidazole] has a CC50 (Huh 5-2 cells [3]) greater than 500 µM and an EC50 ([2]; concentration inhibiting virus replication by 50%, real-time quantitative RT-PCR, HCV 1b Huh 5-2 replicon, average of triplicate determinations, read-out: EC50) greater than 150 µM.

For `O=c1oc2ccc(Br)cc2cc1CSc1ncc[nH]1` [Compound 3d, 2-[(6′-Bromocoumarin-3′-yl)methylthio]imidazole], the melting point was 276.8 to 277.4 °C, the CC50 [1] was 75 µM and the EC50 ([2]; Hepatitis C virus, Huh-5-2) was 5.1 µM.

Work on `Cc1ccc2oc(=O)c(CSc3nc4c(=O)[nH]c(N)nc4n3[C@@H]3O[C@H](CO)[C@@H](O)[C@H]3O)cc2c1` [Compound 11f, 8-[(6′-Methylcoumarin-3′-yl)methylthio]guanosine] yielded a CC50 [1] of 103 µM and an EC50 ([2]; Hepatitis C virus, Huh-5-2) of 103 µM.

In the case of `Cn1ccnc1SCc1cc2cc(Cl)ccc2oc1=O` [Compound 3g, 1-Methyl-2-[(6′-chlorocoumarin-3′-yl)methylthio]imidazole], the melting point is reported as 256.2 to 257.2 °C, the CC50 [1] is reported as 75 µM and the EC50 ([2]; Hepatitis C virus, Huh-5-2) is reported as 15 µM.

Work on `O=c1oc2ccc(F)cc2cc1CSc1nc2c(=O)[nH]cnc2n1[C@@H]1O[C@H](CO)[C@@H](O)[C@H]1O` [Compound 9b, 8-[(6′-Fluorocoumarin-3′-yl)methylthio]inosine] yielded a CC50 [1] of 105 µM and an EC50 ([2]; Hepatitis C virus, Huh-5-2) of 73 µM.

In the case of `O=c1oc2ccc(F)cc2cc1CSc1nccn1[C@@H]1O[C@H](CO)[C@@H](O)[C@H]1O` [Compound 7b, 1-(β-D-Ribofuranos-1″-yl)-2-[(6′-fluorocoumarin-3′-yl)methylthio]imidazole], the melting point is reported as 171.2 to 172.4 °C, the CC50 [1] is reported as 122 µM and the EC50 ([2]; Hepatitis C virus, Huh-5-2) is reported as 26 µM.

Work on `COc1cccc2cc(CSc3nc4c(=O)[nH]cnc4n3[C@@H]3O[C@H](CO)[C@@H](O)[C@H]3O)c(=O)oc12` [Compound 9e, 8-[(8′-Methoxycoumarin-3′-yl)methylthio]inosine] yielded a CC50 [1] of 102 µM and an EC50 ([2]; Hepatitis C virus, Huh-5-2) of 102 µM.

Work on `O=c1oc2ccc(Br)cc2cc1CSc1nc2c(=O)[nH]cnc2n1[C@@H]1O[C@H](CO)[C@@H](O)[C@H]1O` [Compound 9d, 8-[(6′-Bromocoumarin-3′-yl)methylthio]inosine] yielded a CC50 [1] of 93 µM and an EC50 ([2]; Hepatitis C virus, Huh-5-2) of 70 µM.

For `O=c1oc2ccccc2cc1CSc1ncc[nH]1` [Compound 3a, 2-[(Coumarin-3’-yl)methylthio]imidazole], the melting point was 252 to 252.8 °C, the CC50 [1] was 122 µM and the EC50 ([2]; Hepatitis C virus, Huh-5-2) was 30 µM.

In the case of `O=c1oc2ccc(Br)cc2cc1CSc1nc2ccccc2[nH]1` [Compound 12d], the CC50 (Huh 5-2 cells [4]) is listed as 42 µM and the EC50 [5] is listed as 4 µM.

Work on `O=c1oc2ccc(Cl)cc2cc1CSc1ncc[nH]1` [Compound 3c, 2-[(6′-Chlorocoumarin-3′-yl)methylthio]imidazole] yielded a melting point of 266.2 to 270 °C, a CC50 [1] of 85 µM and an EC50 ([2]; Hepatitis C virus, Huh-5-2) of 9.7 µM.

With `Cn1ccnc1SCc1cc2ccccc2oc1=O` [Compound 3f, 1-Methyl-2-[(coumarin-3′-yl)methylthio]imidazole] the melting point was 244.2 to 244.8 °C, the CC50 [1] was 49 µM and the EC50 ([2]; Hepatitis C virus, Huh-5-2) was 6.7 µM.

In the case of `Cc1ccc2oc(=O)c(CSc3nc4c(=O)[nH]cnc4n3[C@@H]3O[C@H](CO)[C@@H](O)[C@H]3O)cc2c1` [Compound 9f, 8-[(6′-Methylcoumarin-3′-yl)methylthio]inosine], the CC50 [1] is reported as 106 µM and the EC50 ([2]; Hepatitis C virus, Huh-5-2) is reported as 106 µM.

In the case of `O=c1oc2ccccc2cc1CSc1nc2ccccc2[nH]1` [Compound 12a], the CC50 (Huh 5-2 cells [4]) is given as 90 µM and the EC50 [5] is given as 27 µM.

For `O=c1oc2ccc(F)cc2cc1CSc1ncc[nH]1` [Compound 3b, 2-[(6′-Fluorocoumarin-3′-yl)methylthio]imidazole], the melting point was 258.6 to 259.4 °C, the CC50 [1] was 83 µM and the EC50 ([2]; Hepatitis C virus, Huh-5-2) was 7.2 µM.

With `Nc1nc2c(nc(SCc3cc4cc(F)ccc4oc3=O)n2[C@@H]2O[C@H](CO)[C@@H](O)[C@H]2O)c(=O)[nH]1` [Compound 11b, 8-[(6′-Fluorocoumarin-3′-yl)methylthio]guanosine] the CC50 [1] was 102 µM and the EC50 ([2]; Hepatitis C virus, Huh-5-2) was 102 µM.

With `O=c1oc2ccccc2cc1CSc1nc2c(=O)[nH]cnc2n1[C@@H]1O[C@H](CO)[C@@H](O)[C@H]1O` [Compound 9a, 8-[(Coumarin-3′-yl)methylthio]inosine] the CC50 [1] was 109 µM and the EC50 ([2]; Hepatitis C virus, Huh-5-2) was 61 µM.

In the case of `COc1cccc2cc(CSc3nccn3[C@@H]3O[C@H](CO)[C@@H](O)[C@H]3O)c(=O)oc12` [Compound 7e, 1-(β-D-Ribofuranos-1″-yl)-2-[(8′-methoxycoumarin-3′-yl)methylthio]imidazole], the melting point is reported as 169.6 to 170.4 °C, the CC50 [1] is reported as 119 µM and the EC50 ([2]; Hepatitis C virus, Huh-5-2) is reported as 34 µM.

In the case of `COc1cccc2cc(CSc3nc4ccccc4[nH]3)c(=O)oc12` [Compound 12e], the CC50 (Huh 5-2 cells [4]) is listed as 27 µM and the EC50 [5] is listed as 10 µM.

With `COc1cccc2cc(CSc3ncc[nH]3)c(=O)oc12` [Compound 3e, 2-[(8′-Methoxycoumarin-3′-yl)methylthio]imidazole] the melting point was 269.8 to 270.6 °C, the CC50 [1] was 173 µM and the EC50 ([2]; Hepatitis C virus, Huh-5-2) was 8.4 µM.

`O=c1oc2ccc(Br)cc2cc1CSc1nccn1[C@@H]1O[C@H](CO)[C@@H](O)[C@H]1O` [Compound 7d, 1-(β-D-Ribofuranos-1″-yl)-2-[(6′-bromocoumarin-3′-yl)methylthio]imidazole] showed a melting point of 188.8 to 189.4 °C, a CC50 [1] of 107 µM and an EC50 ([2]; Hepatitis C virus, Huh-5-2) of 19 µM.

In the case of `O=c1ccc2ccccc2o1` [coumarin], the CC50 [1] is reported as greater than 500 µM and the EC50 ([2]; Hepatitis C virus, Huh-5-2) is reported as greater than 150 µM.

With `O=c1oc2ccccc2cc1CSc1nccn1[C@@H]1O[C@H](CO)[C@@H](O)[C@H]1O` [Compound 7a, 1-(β-D-Ribofuranos-1″-yl)-2-[(coumarin-3′-yl)methylthio]imidazole] the melting point was 164.6 to 165.4 °C, the CC50 [1] was 128 µM and the EC50 ([2]; Hepatitis C virus, Huh-5-2) was 59 µM.
